Assays:
[1] = tested on: C57Bl/6J mice fed with the HFD; assay: Diet-Induced-Obesity (DIO) model: body weight, fat and organ weights of HFD-fed mice; type: in vivo
Text: (§1) Cells, reagents, antibodies, primers. CTPI-2 was purchased from Enamine Ltd. (Monmouth Jct, N.J.). The anti-SLC25A1 antibody used in immunoblots was either from Santa Cruz Biotech (Dallas, Tex.), (#sc-86392), employed at 1:1000 dilution, or from Proteintech (15235-1-AP, Rosemont, Ill.), employed at 1:1000 dilution. Mice and diets. For the majority of the experiments (except for experiments harboring genetic alterations of the Slc25a1 gene), DIO C57BL/6J mice were purchased from Jackson Laboratory (Bar Harbor, Me.) between 4-6 weeks of age. Mice were acclimated in the Georgetown University animal facility for at least one week. At the indicated times, mice were randomized to a standard laboratory chow diet (Labdiet #5053, St. Louis, Mo.) or the high fat diet (Researchdiets D12492, New Brunswick, N.J.), with 60% calories derived from fat (lard), and 20% from sucrose. During the course of the experiments, mice were housed at one mouse per cage and food consumption was measured regularly. Animals were maintained in a normal light-cycle and provided with water ad libitum. CTPI-2 treatment. CTPI-2 was administered at 50 mg/kg via intra-peritoneal injection on alternate days. CTPI-2 was diluted either in DMSO (at 0.2% final concentration) using DMSO as vehicle control, or in 0.47% Sodium Bicarbonate (NaCO3) at a final concentration of 14 mM. NaCO3 (0.47%) served as vehicle control. Immunoblot of murine tissues. Frozen tissue samples were homogenized in radioimmunoprecipitation (RIPA) buffer with protease inhibitor cocktails. Protein quantification was done by using a Coomassie (Bradford) Protein Assay Kit (Pierce, Waltham Mass.). Equal amount of protein lysate was loaded and separated by Novex™ 4-20% Tris-Glycine Mini Gel (Invitrogen, Carlsbad, Calif.), then transferred to a PVDF membrane. Appropriate horseradish peroxidase-conjugated secondary antibody (Invitrogen) was applied after incubation with primary antibody. SuperSignal™ West Pico PLUS Chemiluminescent Substrate (Thermo Fisher Scientific, Waltham, Mass.) was used for protein detection. SLC25a1 strains. The original Slc25a1 tm1a strain was purchased from the Mutant Mouse Resource and Research Center (MMRRC, Chapel Hill, N.C.) (C57BL/6N-Slc25a1^tm1a(EUCOMM)Wtsi, RRID: MMRRC_042258-UCD). The Tg(Alb-cre)21M (Alb-Cre) mice were purchased from Jackson Laboratory (#003574). Slc25a1^+/−, Slc25a1^fl/fl and Alb/Cre mice were genotyped by conventional PCR with genomic DNA extracted from the mouse tail biopsies. Agarose gel electrophoresis was used for analysis of PCR product analysis. The PCR conditions used were as follows: 95° C. for 4 minutes, followed by 40 cycles (95° C. for 30 seconds, 65° C. for 30 seconds, and 72° C. for 50 seconds), 72° C. for 2 min then kept in 4° C. before used. Histological Analysis. Assessment of steatosis was performed on paraffin embedded H&E stained sections derived from 3-6 animals and on multiple images for each animal. The steatosis grade was scored according to the degree of liver involvement with 0, <5%; 1, 5% to 33%; 2, 33% to 50%; and 3, >50%. Alternatively, the percentage of steatosis per area was calculated with ImageJ program. Lypidomic analysis. Targeted quantitation of triglycerides was performed using multiple reaction monitoring mass spectrometry. The samples were resolved on an CORTECS T3 2.7 μm, 2.1×30 mm column online with a triple quadrupole mass spectrometer (Xevo-TQ-S, Waters Corporation, Milford, Mass.) operating in the multiple reaction monitoring (MRM) mode. Signal intensities from all MRM Q1/Q3 ion pairs for triglycerides were ranked to ensure selection of the most intense precursor and fragment ion pair for MRM-based quantitation. […] The LC and MRM method used here for the study was developed by Waters Corporation. The metabolite ratios were calculated by normalizing the peak area of endogenous metabolites within tissue samples normalized to the internal standard. Processed data was normalized with respect to tissue weight taken for analysis. […]

[2] = tested on: mice fed with a normal diet; assay: Body weight of mice fed control (normal) diet and treated with CTPI-2; type: in vivo; conditions: CTPI-2 for 5 months
Text: Cells, reagents, antibodies, primers. CTPI-2 was purchased from Enamine Ltd. (Monmouth Jct, N.J.). The anti-SLC25A1 antibody used in immunoblots was either from Santa Cruz Biotech (Dallas, Tex.), (#sc-86392), employed at 1:1000 dilution, or from Proteintech (15235-1-AP, Rosemont, Ill.), employed at 1:1000 dilution. Mice and diets. For the majority of the experiments (except for experiments harboring genetic alterations of the Slc25a1 gene), DIO C57BL/6J mice were purchased from Jackson Laboratory (Bar Harbor, Me.) between 4-6 weeks of age. Mice were acclimated in the Georgetown University animal facility for at least one week. […] During the course of the experiments, mice were housed at one mouse per cage and food consumption was measured regularly. […] Protein quantification was done by using a Coomassie (Bradford) Protein Assay Kit (Pierce, Waltham Mass.). […] The steatosis grade was scored according to the degree of liver involvement with 0, <5%; 1, 5% to 33%; 2, 33% to 50%; and 3, >50%. Alternatively, the percentage of steatosis per area was calculated with ImageJ program. […] Targeted quantitation of triglycerides was performed using multiple reaction monitoring mass spectrometry. […] Signal intensities from all MRM Q1/Q3 ion pairs for triglycerides were ranked to ensure selection of the most intense precursor and fragment ion pair for MRM-based quantitation. […]

[3] = tested on: liver of HFD-fed mice; assay: Liver steatosis / steatohepatitis histology and serum chemistry in HFD-fed mice (time course); type: in vivo, mouse
Text: as §1

[4] = tested on: HFD-fed mice; assay: Glucose homeostasis in HFD-fed mice (fasting glucose, GTT, ITT); type: in vivo, mouse
Text: (§2) Cells, reagents, antibodies, primers. CTPI-2 was purchased from Enamine Ltd. (Monmouth Jct, N.J.). The anti-SLC25A1 antibody used in immunoblots was either from Santa Cruz Biotech (Dallas, Tex.), (#sc-86392), employed at 1:1000 dilution, or from Proteintech (15235-1-AP, Rosemont, Ill.), employed at 1:1000 dilution. Mice and diets. For the majority of the experiments (except for experiments harboring genetic alterations of the Slc25a1 gene), DIO C57BL/6J mice were purchased from Jackson Laboratory (Bar Harbor, Me.) between 4-6 weeks of age. Mice were acclimated in the Georgetown University animal facility for at least one week. At the indicated times, mice were randomized to a standard laboratory chow diet (Labdiet #5053, St. Louis, Mo.) or the high fat diet (Researchdiets D12492, New Brunswick, N.J.), with 60% calories derived from fat (lard), and 20% from sucrose. During the course of the experiments, mice were housed at one mouse per cage and food consumption was measured regularly. Animals were maintained in a normal light-cycle and provided with water ad libitum. CTPI-2 treatment. CTPI-2 was administered at 50 mg/kg via intra-peritoneal injection on alternate days. […] Protein quantification was done by using a Coomassie (Bradford) Protein Assay Kit (Pierce, Waltham Mass.). […] The steatosis grade was scored according to the degree of liver involvement with 0, <5%; 1, 5% to 33%; 2, 33% to 50%; and 3, >50%. Alternatively, the percentage of steatosis per area was calculated with ImageJ program. […] Targeted quantitation of triglycerides was performed using multiple reaction monitoring mass spectrometry. […] Signal intensities from all MRM Q1/Q3 ion pairs for triglycerides were ranked to ensure selection of the most intense precursor and fragment ion pair for MRM-based quantitation. […] The metabolite ratios were calculated by normalizing the peak area of endogenous metabolites within tissue samples normalized to the internal standard. […]

[5] = tested on: SLC25A1; assay: Immunoblot of SLC25A1 protein in tissues of HFD-fed mice; type: in vivo, mouse
Text: as §2

[6] = tested on: HFD-fed mice; assay: Inflammation and fibrosis in HFD-fed mice (serum interleukins, macrophage IHC, RT-PCR, Picro-Sirius Red); type: in vivo, mouse
Text: as §1

[7] = tested on: liver gene expression program induced by the HFD; assay: RNAseq, RT-qPCR and immunoblot of liver (and WAT) of HFD-fed mice; type: in vivo, mouse
Text: as §1

[8] = tested on: liver of HFD-fed mice; assay: Liver metabolites and lipid profile (LC-MS, Lipidyzer) in HFD-fed mice; type: in vivo, mouse
Text: as §1

[9] = tested on: HepG2 cells; assay: mRNA levels (RT-qPCR) in tissue culture cells treated with CTPI-2 with or without citrate; type: cell-based
Procedure: FIGS. 6 A-B show citrate and Ac-CoA levels derived from liver extracts of HFD-vehicle (light) or HFD+CTPI-2 (dark). FIGS. 6C-D show levels of the indicated triacylglycerides (TAG, (FIG. 6C)) and total fatty acids (FA, panel D) detected with the Lipidyzer platform. N=2-3 mice per group. FIG. 6E-F show levels of the indicated metabolites detected with targeted LC-MS analysis. […] The indicated mRNA levels were analyzed with RT-qPCR. H. Model summarizing findings as explained in the Examples. Bars indicate Standard Deviations. *p≤0.05, **p≤0.01, ***p≤0.001.
To corroborate the direct effect of CTPI-2 and of citrate in the regulation of the genes identified by our analysis, the effects of the drug and of citrate supplementation in tissue culture cells were explored.

[10] = molecular target: SLC25A1 (Homo sapiens, UniProt P53007); conditions: previous studies performed in vitro (Fernandez et al.); cited from earlier work
Sequence of SLC25A1 (Homo sapiens, UniProt P53007) (P53007 14-311, species assumed): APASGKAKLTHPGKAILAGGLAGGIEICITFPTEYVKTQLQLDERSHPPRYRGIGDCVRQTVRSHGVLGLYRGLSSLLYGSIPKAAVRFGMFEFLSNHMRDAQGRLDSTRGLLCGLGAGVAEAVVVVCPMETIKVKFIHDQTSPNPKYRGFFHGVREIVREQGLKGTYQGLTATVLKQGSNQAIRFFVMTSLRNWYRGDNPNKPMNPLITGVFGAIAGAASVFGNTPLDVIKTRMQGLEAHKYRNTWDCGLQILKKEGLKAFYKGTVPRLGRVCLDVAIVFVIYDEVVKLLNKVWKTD

[11] = HFD-fed mice, CTPI-2 50 mg/kg i.p. alternate days
[12] = time course of CTPI-2 treatment
[13] = HFD-fed mice, CTPI-2 vs vehicle
[14] = liver, 4 weeks of CTPI-2 treatment
[15] = liver, normalized to HFD-vehicle

Compound: O=C(O)c1ccccc1NS(=O)(=O)c1ccc(Cl)c([N+](=O)[O-])c1 [CTPI-2]
- feeding behavior (daily food consumption) ([1]; C57BL/6J mice, CTPI-2 50 mg/kg i.p. on alternate days): did not modify feeding behavior
- body weight gain ([1]; HFD 6 months, CTPI-2 50 mg/kg i.p. alternate days, started after 12 weeks of HFD): largely prevented such weight gain
- WAT (visceral abdominal fat), also by MRI [1, 11]: reducing the WAT
- WAT weight (mass) [1, 11]: reducing their mass
- liver weight (mass) [1, 11]: reducing their mass
- pale, enlarged liver phenotype (visual examination) [1, 11]: completely reverted this phenotype
- body weights [2]: did not modify body weights
- prevention of liver steatosis relative to Cre/Alb+:Slc25a1−/− mice ([3]; HFD conditions): more effectively prevented liver steatosis
- alanine aminotransferase (ALT) levels [3, 11]: normalized
- total serum cholesterol levels [3, 11]: normalized
- serum triglyceride levels ([3]; HFD-fed mice, CTPI-2 50 mg/kg i.p. alternate days, LC-MS): normalized
- evolution to steatohepatitis ([3]; HFD-fed mice, CTPI-2 started after 3 months HFD): prevented the evolution to steatohepatitis
- liver steatosis ([3]; HFD-fed mice, CTPI-2 started after 3 months HFD, 4, 8, 12 weeks treatment): nearly completely reversed liver steatosis
- liver histology compared with normal-diet animals ([3]; after 3 months of CTPI-2 and 6 months on the HFD, most treated mice): nearly indistinguishable from those of animals fed a normal diet
- early stages of steatosis ([3]; steatosis present after 3 months HFD when CTPI-2 started): reverted these early stages of steatosis
- basal fasting glucose levels ([4]; CTPI-2 50 mg/kg i.p. alternate days): reduced the basal fasting glucose levels
- glucose tolerance test (GTT) [4, 12]: complete time-dependent normalization
- insulin tolerance test (ITT) [4, 12]: complete time-dependent normalization
- SLC25A1 expression levels in the adipose tissue [5]: reduced SLC25A1 expression levels
- SLC25A1 expression levels in the liver [5]: reduced SLC25A1 expression levels
- SLC25A1 expression levels in the pancreas [5]: not in the pancreas
- collagen in the liver (Picro-Sirius Red) ([6]; HFD-fed mice): reduction of collagen in the liver
- circulating serum IL-4 [6, 13]: increasing
- circulating serum IL-6 [6, 13]: lowered
- circulating serum IL-10 [6, 13]: increasing
- monocyte chemo-attractant protein-1 (MCP1) ([6]; HFD-fed mice, serum): reduced
- monokine induced by interferon-γ (MIG) ([6]; HFD-fed mice, serum): reduced
- adipose tissue macrophage infiltration organized in crown-like structures ([6]; HFD-fed mice, IHC): completely resolved this phenotype
- liver Kupffer cell macrophage population (F4/80) and perivascular macrophage infiltration ([6]; HFD-fed mice, IHC): reversed
- M2 markers (MRC1, FN-1, Arg1) mRNA ([6]; liver of HFD-fed mice, RT-PCR): either not affecting or increasing
- expression of anti-fibrotic cadherin 1 ([6]; liver of HFD-fed mice, RT-PCR): increase
- expression of pro-fibrotic genes (collagen 1 and 4, keratin 19, PDGFR) ([6]; liver of HFD-fed mice, RT-PCR): reduction
- pro-inflammatory markers of the M1 phenotype (mRNA) ([6]; liver of HFD-fed mice, RT-PCR): repressed
- bile acid biosynthetic pathway (RNAseq) ([7]; liver): inhibits bile acid biosynthetic pathway
- protein levels matching the gene expression pattern (immunoblot) ([7]; liver and adipose tissue): concordantly paralleled by changes in the protein levels
- cluster of genes involved in NAFLD (RNAseq) [7, 14]: down-regulated
- gene expression program induced by the HFD (RNAseq) [7, 14]: essentially reverted the gene expression program induced by the HFD
- levels of PPARγ ([7]; liver, RT-qPCR): unchanged
- PPARγ and downstream target genes CEBPα1, CEBPα2 and GLUT4 (RT-qPCR) [7, 15]: down-regulated
- master lipogenetic genes SREBP1, FASN and ACACA (RT-qPCR) [7, 15]: suppression
- genes/pathways of carbon and pyruvate metabolism, glycolysis and gluconeogenic genes (RNAseq) ([7]; liver, Fbp1, PC, PCK1/2, G6PC, G6PC3, AldoA/B, PFKL/P, PGK1, PKLR): repressed
- Ac-CoA concentration in the liver ([8]; HFD+CTPI-2 vs HFD-vehicle): significantly lower
- citrate concentration in the liver ([8]; HFD+CTPI-2 vs HFD-vehicle): significantly lower
- liver diglycerides levels ([8]; LC-MS): reduced the levels
- liver linoleic acid levels ([8]; LC-MS): reduced the levels
- liver monoglycerides levels ([8]; LC-MS): reduced the levels
- liver palmitic acid levels ([8]; LC-MS): reduced the levels
- liver phosphatidylglycerol levels ([8]; LC-MS): reduced the levels
- liver concentration of long chain triglycerides ([8]; Lipidyzer platform): significantly diminished
- total level of free fatty acids in the liver ([8]; Lipidyzer platform, particularly chain 16 to 25): significantly diminished
- liver concentration of lactate ([8]; targeted LC-MS): decreased
- liver concentration of pyruvate ([8]; targeted LC-MS): decreased
- effect of citrate supplementation on CTPI-2 gene inhibition (FASN, ACACA, AldoA, Aldo/B) ([9]; 5 mM sodium citrate): completely rescued by citrate
- expression of FA synthesis genes FASN and ACACA ([9]; CTPI-2 5-12 hours): inhibited
- expression of glycolytic/gluconeogenesis genes AldoA and Aldo/B ([9]; CTPI-2 5-12 hours): inhibited
- SLC25A1 expression levels in vitro [10]: did not affect the expression levels of this protein
- mitochondrial citrate transport activity [10]: interfered with the mitochondrial citrate transport activity
